Source: publication PMC9229919, “4-Aminoquinoline-Based Adamantanes as Potential Anticholinesterase Agents in Symptomatic Treatment of Alzheimer’s Disease” (Pharmaceutics, 2022)
Where two headings read alike, the source gives them in different places.

Experiments:
purified human BChE = molecular target: T1, purified human BChE (Homo sapiens, UniProt P06276); assay: biochemical; type: biochemical
T1 construct: possibly also a gift of Dr Florian Nachon (the sentence is ambiguous)
Procedure, shortened: (§1)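 Modified Ellman assay with acetylthiocholine and DTNB in 0.1 M sodium phosphate pH 7.4 (enzymes diluted with 0.1% BSA), ≤0.2% DMSO, 25 °C. At least three inhibitor concentrations per substrate level; Ki,app from Hunter–Downs equation, Ki from y-intercept and inhibition type from Ki,app vs [S].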

recombinant human AChE = molecular target: T2, recombinant human AChE (Homo sapiens, UniProt P22303); assay: biochemical; type: biochemical; settings: for IS: IS = Ki(BChE)/Ki(AChE), IS > 1 selective to AChE
T2 construct: gift of Dr Florian Nachon (Armed Forces Biomedical Research Institute, Brétigny-sur-Orge, France)
Procedure, shortened: as §1

[1] = Ferric reducing antioxidant power (FRAP) assay; settings: for FRAP: mean ± standard error of three experiments; for antioxidant power lower than that of Trolox: on average;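 on FRAP: expressed as µM Fe2+ equivalents from an FeSO4·7H2O standard curve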
Procedure, shortened: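 Ferric-TPTZ reduction measured by absorbance at 593 nm after 60 min at 37 °C in pH 3.6 acetate-buffered TPTZ/FeCl3 reagent, with test compounds at 10 and 100 µM. FRAP values calculated from an Fe2SO4·7H2O standard curve. Data from three independent experiments.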

[2] = Reverse-phase thin-layer chromatographic lipophilicity (RF, RM0); type: physicochemical; settings: for RM0: intercept of RM = RM0 + bC; for b: slope of RM = RM0 + bC; for RF, Methanol/Water/Hydrochloric acid (conc.), mobile phase I / RF, Dioxane/Water/Hydrochloric acid (conc.), mobile phase II / RF, Methanol/Water/Hydrochloric acid (conc.), mobile phase II / RF, Acetone/Water/Hydrochloric acid (conc.), mobile phase III / RF, Dioxane/Water/Hydrochloric acid (conc.), mobile phase III / RF, Methanol/Water/Hydrochloric acid (conc.), mobile phase III / RF, Dioxane/Water/Hydrochloric acid (conc.), mobile phase IV / RF, Acetone/Water/Hydrochloric acid (conc.), mobile phase IV / RF, Methanol/Water/Hydrochloric acid (conc.), mobile phase IV / RF, Acetone/Water/Hydrochloric acid (conc.), mobile phase IX / RF, Methanol/Water/Hydrochloric acid (conc.), mobile phase IX / RF, Dioxane/Water/Hydrochloric acid (conc.), mobile phase V / RF, Acetone/Water/Hydrochloric acid (conc.), mobile phase V / RF, Methanol/Water/Hydrochloric acid (conc.), mobile phase V / RF, Dioxane/Water/Hydrochloric acid (conc.), mobile phase VI / RF, Acetone/Water/Hydrochloric acid (conc.), mobile phase VI / RF, Methanol/Water/Hydrochloric acid (conc.), mobile phase VI / RF, Acetone/Water/Hydrochloric acid (conc.), mobile phase VII / RF, Methanol/Water/Hydrochloric acid (conc.), mobile phase VII / RF, Acetone/Water/Hydrochloric acid (conc.), mobile phase VIII / RF, Methanol/Water/Hydrochloric acid (conc.), mobile phase VIII: RP-18 silica; for RF, Methanol/Water/Hydrochloric acid (conc.), mobile phase I: I = 90%MeOH/5%H2O/5%HCl; for RF, Dioxane/Water/Hydrochloric acid (conc.), mobile phase II: II = 80%Dioxane/15%H2O/5%HCl; for RF, Methanol/Water/Hydrochloric acid (conc.), mobile phase II: II = 85%MeOH/10%H2O/5%HCl; for RF, Acetone/Water/Hydrochloric acid (conc.), mobile phase III: III = 70%AC/25%H2O/5%HCl; for RF, Dioxane/Water/Hydrochloric acid (conc.), mobile phase III: III = 70%Dioxane/25%H2O/5%HCl; for RF, Methanol/Water/Hydrochloric acid (conc.), mobile phase III: III = 80%MeOH/15%H2O/5%HCl; for RF, Dioxane/Water/Hydrochloric acid (conc.), mobile phase IV: IV = 60%Dioxane/35%H2O/5%HCl; for RF, Acetone/Water/Hydrochloric acid (conc.), mobile phase IV: IV = 65%AC/30%H2O/5%HCl; for RF, Methanol/Water/Hydrochloric acid (conc.), mobile phase IV: IV = 75%MeOH/20%H2O/5%HCl; for RF, Acetone/Water/Hydrochloric acid (conc.), mobile phase IX: IX = 40%AC/55%H2O/5%HCl; for RF, Methanol/Water/Hydrochloric acid (conc.), mobile phase IX: IX = 50%MeOH/45%H2O/5%HCl; for RF, Dioxane/Water/Hydrochloric acid (conc.), mobile phase V: V = 50%Dioxane/45%H2O/5%HCl; for RF, Acetone/Water/Hydrochloric acid (conc.), mobile phase V: V = 60%AC/35%H2O/5%HCl; for RF, Methanol/Water/Hydrochloric acid (conc.), mobile phase V: V = 70%MeOH/25%H2O/5%HCl; for RF, Dioxane/Water/Hydrochloric acid (conc.), mobile phase VI: VI = 40%Dioxane/55%H2O/5%HCl; for RF, Acetone/Water/Hydrochloric acid (conc.), mobile phase VI: VI = 55%AC/40%H2O/5%HCl; for RF, Methanol/Water/Hydrochloric acid (conc.), mobile phase VI: VI = 65%MeOH/30%H2O/5%HCl; for RF, Acetone/Water/Hydrochloric acid (conc.), mobile phase VII: VII = 50%AC/45%H2O/5%HCl; for RF, Methanol/Water/Hydrochloric acid (conc.), mobile phase VII: VII = 60%MeOH/35%H2O/5%HCl; for RF, Acetone/Water/Hydrochloric acid (conc.), mobile phase VIII: VIII = 45%AC/50%H2O/5%HCl; for RF, Methanol/Water/Hydrochloric acid (conc.), mobile phase VIII: VIII = 55%MeOH/40%H2O/5%HCl
Procedure, shortened: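 Lipophilicity from RP-TLC retention at 22±2 °C over a 4.5 cm development distance. Eluents: organic modifier (methanol, acetone or dioxane), water and hydrochloric acid, methanol stepped by 10%. RM0 obtained from RF.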

[3] = ± standard error, 25 °C, ATCh substrate, read-out: Ki BChE
[4] = ± standard error, 25 °C, ATCh substrate, read-out: Ki AChE
[5] = Acetone/Water/Hydrochloric acid (conc.)
[6] = Dioxane/Water/Hydrochloric acid (conc.)
[7] = Methanol/Water/Hydrochloric acid (conc.)
[8] = logarithm of Ki in µM, BChE, dependent variable of the QSAR model, read-out: Y Measured 2 log(ki)Bche, log (Ki/µM BChE) (converted)
[9] = log (Ki/µM AChE), read-out: Y Measured 1 log(ki)Ache (converted)

T2 sequence (P22303 32-614): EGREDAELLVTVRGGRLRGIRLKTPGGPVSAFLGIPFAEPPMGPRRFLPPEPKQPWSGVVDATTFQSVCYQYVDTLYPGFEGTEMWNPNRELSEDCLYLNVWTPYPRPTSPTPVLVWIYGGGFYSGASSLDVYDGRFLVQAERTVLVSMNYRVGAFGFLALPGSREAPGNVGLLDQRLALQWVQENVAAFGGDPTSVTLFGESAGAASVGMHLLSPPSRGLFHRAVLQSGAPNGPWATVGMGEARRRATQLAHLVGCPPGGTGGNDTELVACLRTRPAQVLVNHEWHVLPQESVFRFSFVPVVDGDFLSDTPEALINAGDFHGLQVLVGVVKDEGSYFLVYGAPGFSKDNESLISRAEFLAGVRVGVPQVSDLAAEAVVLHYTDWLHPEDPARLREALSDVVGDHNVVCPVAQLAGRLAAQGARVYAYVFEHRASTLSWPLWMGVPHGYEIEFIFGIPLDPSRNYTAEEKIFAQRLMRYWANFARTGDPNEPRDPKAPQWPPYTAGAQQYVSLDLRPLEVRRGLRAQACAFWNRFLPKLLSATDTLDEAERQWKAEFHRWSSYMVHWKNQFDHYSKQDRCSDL
T1 sequence (P06276 29-602): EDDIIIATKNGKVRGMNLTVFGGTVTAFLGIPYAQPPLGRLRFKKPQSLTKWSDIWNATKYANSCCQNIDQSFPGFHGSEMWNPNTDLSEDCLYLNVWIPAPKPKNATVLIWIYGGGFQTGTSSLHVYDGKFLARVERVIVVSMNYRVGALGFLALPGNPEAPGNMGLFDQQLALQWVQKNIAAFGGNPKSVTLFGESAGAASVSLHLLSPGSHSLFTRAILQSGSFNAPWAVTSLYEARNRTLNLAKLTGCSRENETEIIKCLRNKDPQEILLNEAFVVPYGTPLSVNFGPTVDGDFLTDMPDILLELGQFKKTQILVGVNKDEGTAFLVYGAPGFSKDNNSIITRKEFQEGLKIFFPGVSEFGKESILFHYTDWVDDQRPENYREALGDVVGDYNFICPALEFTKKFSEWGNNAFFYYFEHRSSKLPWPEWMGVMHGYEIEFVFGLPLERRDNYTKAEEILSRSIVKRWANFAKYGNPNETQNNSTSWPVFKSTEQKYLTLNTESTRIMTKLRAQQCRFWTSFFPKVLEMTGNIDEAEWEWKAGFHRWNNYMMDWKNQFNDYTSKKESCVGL

Row | SMILES | Ki (purified human BChE; [3]) | IS (recombinant human AChE) | Ki (recombinant human AChE; [4]) | FRAP ([1]; 10 µM compound) | FRAP ([1]; 100 µM compound) | RM0 [2, 5] | b [2, 5] | RM0 [2, 6] | b [2, 6] | RM0 [2, 7] | b [2, 7] | RF, Methanol/Water/Hydrochloric acid (conc.), mobile phase I [2] | RF, Dioxane/Water/Hydrochloric acid (conc.), mobile phase II [2] | RF, Methanol/Water/Hydrochloric acid (conc.), mobile phase II [2] | RF, Acetone/Water/Hydrochloric acid (conc.), mobile phase III [2] | RF, Dioxane/Water/Hydrochloric acid (conc.), mobile phase III [2] | RF, Methanol/Water/Hydrochloric acid (conc.), mobile phase III [2] | RF, Dioxane/Water/Hydrochloric acid (conc.), mobile phase IV [2] | RF, Acetone/Water/Hydrochloric acid (conc.), mobile phase IV [2] | RF, Methanol/Water/Hydrochloric acid (conc.), mobile phase IV [2] | also measured
1 | CC(CCNCC12CC3CC(CC(C3)C1)C2)Nc1ccnc2ccccc12 (stereo not drawn) [Compound 15] | 0.65 ± 0.04 µM | 0.9 | 0.74 ± 0.03 µM | 9.3 ± 2.2 µM | 224 ± 21 µM | 1.742 | 2.801 | 0.8903 | 1.797 | 2.31 | 3.062 | 0.71 | 0.74 | 0.67 | 0.6 | 0.7 | 0.54 | 0.7 | 0.55 | 0.51 | RF, Acetone/Water/Hydrochloric acid (conc.), mobile phase IX [2]: 0.15; RF, Methanol/Water/Hydrochloric acid (conc.), mobile phase IX [2]: 0.11; RF, Dioxane/Water/Hydrochloric acid (conc.), mobile phase V [2]: 0.51; RF, Acetone/Water/Hydrochloric acid (conc.), mobile phase V [2]: 0.45; RF, Methanol/Water/Hydrochloric acid (conc.), mobile phase V [2]: 0.45; RF, Dioxane/Water/Hydrochloric acid (conc.), mobile phase VI [2]: 0.35; RF, Acetone/Water/Hydrochloric acid (conc.), mobile phase VI [2]: 0.4; RF, Methanol/Water/Hydrochloric acid (conc.), mobile phase VI [2]: 0.36; RF, Acetone/Water/Hydrochloric acid (conc.), mobile phase VII [2]: 0.35; RF, Methanol/Water/Hydrochloric acid (conc.), mobile phase VII [2]: 0.27; RF, Acetone/Water/Hydrochloric acid (conc.), mobile phase VIII [2]: 0.29; RF, Methanol/Water/Hydrochloric acid (conc.), mobile phase VIII [2]: 0.2
2 | CC(CCNCCC12CC3CC(CC(C3)C1)C2)Nc1ccnc2ccccc12 (stereo not drawn) [Compound 16] | 0.38 ± 0.03 µM | 0.7 | 0.52 ± 0.02 µM | 4.1 ± 0.4 µM | 46 ± 4 µM | 1.94 | 3.086 | 0.9042 | 1.814 | 2.5841 | 3.345 | 0.7 | 0.74 | 0.64 | 0.59 | 0.7 | 0.51 | 0.7 | 0.54 | 0.5 | Ki (purified human BChE; [8]): 0.38 µM; Ki (recombinant human AChE; [9]): 0.52 µM; RF, Acetone/Water/Hydrochloric acid (conc.), mobile phase IX [2]: 0.12; RF, Methanol/Water/Hydrochloric acid (conc.), mobile phase IX [2]: 0.09; RF, Dioxane/Water/Hydrochloric acid (conc.), mobile phase V [2]: 0.5; RF, Acetone/Water/Hydrochloric acid (conc.), mobile phase V [2]: 0.44; RF, Methanol/Water/Hydrochloric acid (conc.), mobile phase V [2]: 0.42; RF, Dioxane/Water/Hydrochloric acid (conc.), mobile phase VI [2]: 0.35; RF, Acetone/Water/Hydrochloric acid (conc.), mobile phase VI [2]: 0.39; RF, Methanol/Water/Hydrochloric acid (conc.), mobile phase VI [2]: 0.31; RF, Acetone/Water/Hydrochloric acid (conc.), mobile phase VII [2]: 0.33; RF, Methanol/Water/Hydrochloric acid (conc.), mobile phase VII [2]: 0.21; RF, Acetone/Water/Hydrochloric acid (conc.), mobile phase VIII [2]: 0.26; RF, Methanol/Water/Hydrochloric acid (conc.), mobile phase VIII [2]: 0.15
3 | Clc1ccc2c(Nc3ccc(NCC45CC6CC(CC(C6)C4)C5)cc3)ccnc2c1 [Compound 17] | 2.5 ± 0.5 µM | 0.8 | 3.3 ± 0.4 µM | 53 ± 4 µM | 512 ± 117 µM | 2.018 | 3.21 | 0.9452 | 1.898 | 2.643 | 3.504 | 0.73 | 0.75 | 0.69 | 0.59 | 0.71 | 0.54 | 0.71 | 0.54 | 0.53 | decrease in BChE inhibition vs compound 5 (purified human BChE): up to 275 times; Ki (purified human BChE; [8]): 2.5 µM; Ki (recombinant human AChE; [9]): 3.3 µM; antioxidant power lower than that of Trolox [1]: ~10 times; RF, Acetone/Water/Hydrochloric acid (conc.), mobile phase IX [2]: 0.11; RF, Methanol/Water/Hydrochloric acid (conc.), mobile phase IX [2]: 0.09; RF, Dioxane/Water/Hydrochloric acid (conc.), mobile phase V [2]: 0.49; RF, Acetone/Water/Hydrochloric acid (conc.), mobile phase V [2]: 0.44; RF, Methanol/Water/Hydrochloric acid (conc.), mobile phase V [2]: 0.45; RF, Dioxane/Water/Hydrochloric acid (conc.), mobile phase VI [2]: 0.35; RF, Acetone/Water/Hydrochloric acid (conc.), mobile phase VI [2]: 0.39; RF, Methanol/Water/Hydrochloric acid (conc.), mobile phase VI [2]: 0.35; RF, Acetone/Water/Hydrochloric acid (conc.), mobile phase VII [2]: 0.33; RF, Methanol/Water/Hydrochloric acid (conc.), mobile phase VII [2]: 0.24; RF, Acetone/Water/Hydrochloric acid (conc.), mobile phase VIII [2]: 0.25; RF, Methanol/Water/Hydrochloric acid (conc.), mobile phase VIII [2]: 0.15
4 | Clc1ccc2c(Nc3cccc(NCC45CC6CC(CC(C6)C4)C5)c3)ccnc2c1 [Compound 18] | 5.5 ± 0.6 µM | 0.6 | 9 ± 0.8 µM | 22 ± 6 µM | 300 ± 32 µM | 2.074 | 3.191 | 1.102 | 2.114 | 2.664 | 3.468 | 0.71 | 0.75 | 0.68 | 0.55 | 0.71 | 0.5 | 0.7 | 0.5 | 0.49 | decrease in BChE inhibition vs compound 5 (purified human BChE): up to 275 times; Ki (purified human BChE; [8]): 5.5 µM; Ki (recombinant human AChE; [9]): 8.99 µM; antioxidant power lower than that of Trolox [1]: ~20 times; RF, Acetone/Water/Hydrochloric acid (conc.), mobile phase IX [2]: 0.1; RF, Methanol/Water/Hydrochloric acid (conc.), mobile phase IX [2]: 0.09; RF, Dioxane/Water/Hydrochloric acid (conc.), mobile phase V [2]: 0.48; RF, Acetone/Water/Hydrochloric acid (conc.), mobile phase V [2]: 0.4; RF, Methanol/Water/Hydrochloric acid (conc.), mobile phase V [2]: 0.41; RF, Dioxane/Water/Hydrochloric acid (conc.), mobile phase VI [2]: 0.3; RF, Acetone/Water/Hydrochloric acid (conc.), mobile phase VI [2]: 0.36; RF, Methanol/Water/Hydrochloric acid (conc.), mobile phase VI [2]: 0.34; RF, Acetone/Water/Hydrochloric acid (conc.), mobile phase VII [2]: 0.3; RF, Methanol/Water/Hydrochloric acid (conc.), mobile phase VII [2]: 0.22; RF, Acetone/Water/Hydrochloric acid (conc.), mobile phase VIII [2]: 0.21; RF, Methanol/Water/Hydrochloric acid (conc.), mobile phase VIII [2]: 0.13
